{
  "source": "patent US11389382B2",
  "about": "“Biphase chemical peel” (L'OREAL, priority 2019, dated 2022)",
  "key": {"stratum corneum samples": {"tested_on": "stratum corneum samples", "experiment": "In vitro stratum corneum comparison of ΔT using differential scanning calorimetry (lipid disorganization)", "conditions": "DSC 20° C. to 120° C. at 5° C./min; 0.1 g/sample on SC surface for 15 min in 75% RH", "protocol": "In Vitro Stratum Corneum Comparison of ΔT using differential scanning calorimetry (DSC) to characterize the stability of a protein or other biomolecule directly in its native form. It does this by measuring the heat change associated with the molecule's thermal denaturation when heated at a constant rate.\nStudies were conducted with each of the exemplified inventive and comparative compositions, to evaluate effect of the compositions on the stratum corneum. Inventive 1 and Inventive 2 compositions and the Comparative composition together with Jessner peel, glycolic acid alone and isopropyl myristate controls were evaluated on SC samples according to the following procedure. Stratum corneum samples were equilibrated at 75% RH overnight. Inventive and Comparative Compositions and control treatments applied on SC surface (0.1 g/sample) for 15 min in 75% RH. The SC surface was wiped clean and rinsed with DI water. Allow to dry in 75% RH overnight. The DSC profile was measured from 20° C. to 120° C. at 5° C./min."}, "forearm skin": {"tested_on": "forearm skin", "experiment": "In vivo tape stripping, protein removed, Micro BCA assay (efficacy of desquamation)", "parameters": "species or system human", "conditions": "tape stripping of forearm after 15 min treatment; 4 tape strippings per region, average of 3 regions, single person", "protocol": "Example 5: In Vivo Tape Stripping Protein Removed Using a Micro […] Assay to Characterize the Efficacy of Desquamation\nStudies were conducted with each of the exemplified inventive and comparative compositions, to evaluate effect of the compositions on live skin tape stripping samples. Inventive 1 and Inventive 2 compositions and the Comparative composition together with Jessner peel, glycolic acid alone and isopropyl myristate controls were evaluated according to the following procedure. Tape strips of skin areas tested with each composition were obtained, with 4 tape strippings per region; Average of 3 regions; Experiment done on single person rinse the forearm with distilled water and dry it for 3 minutes; Wipe with the peel test composition saturated cotton pads on the designated area and dry it for 15 min; Rinse the forearm with the water and dry the moisture by placing a tissue and patting the tissue. Air dry it for 3 min; Perform the tape stripping—(1) put the tape on, (2) place the metal plate on top of the tape, and (3) put weight (2 kg) for 5 seconds.—3 tapes (3 different regions of the skin)/peel test composition×4 tape stripping; Each tape (1.4 cm) was inserted in a 2 mL Eppendorf tube and 500 uL of PBS was added to each tube; Shaking condition ([…]) for 2 hours @ room temperature; Sonication for 20 min in ice water; Micro BCA assay."}, "[1]": {"conditions": "acute oral toxicity, mutagenicity, skin irritation, skin sensitization, phototoxicity; cited from earlier work"}},
  "data": [
    {"smiles": "O=C(O)CO", "note": "[Glycolic Acid Control, glycolic acid]", "values": [
      {"measurement": "ΔT (measurement of lipid disorganization)", "setting": "stratum corneum samples", "value": "5.94 ± 0.41"},
      {"measurement": "Protein Content (protein removed)", "setting": "forearm skin", "value": "1.65 ± 0.02", "unit": "μg/cm^2"}
    ]},
    {"smiles": "CC(c1ccccc1)c1ccc(O)cc1O", "note": "(centres unmarked) [Phenylethyl resorcinol]", "values": [
      {"measurement": "adverse effects in basic toxicological tests", "setting": "[1]", "value": "not shown adverse effects"}
    ]},
    {"smiles": "CCCCCCCCCCCCCC(=O)OC(C)C", "note": "[Isopropyl myristate control, isopropyl myristate]", "values": [
      {"measurement": "ΔT (measurement of lipid disorganization)", "setting": "stratum corneum samples", "value": "6.40 ± 0.1"},
      {"measurement": "Protein Content (protein removed)", "setting": "forearm skin", "value": "2.4 ± 0.88", "unit": "μg/cm^2"}
    ]}
  ]
}
